# Measurements: patent US20040220411A1, “Oxalic acid derivatives” (priority 2001, published 2004)
# Target: factor Xa (Homo sapiens, UniProt P00742)
# Assay: Inhibition of factor Xa
# Format: biochemical
# Conditions: Affinity to receptors
# Description: The inhibition of factor Xa by the compounds according to the invention and the measurement of the anticoagulant and antithrombotic activity can be determined by conventional in-vitro or in-vivo methods. A suitable method is described, for example, by J. Hauptmann et al. in Thrombosis and Haemostasis 1990, 63, 220-223.
# The inhibition of factor Xa can be measured, for example by the method of T. Hara et al. in Thromb. Haemostas. 1994, 71, 314-319.
# factor Xa, sequence (P00742 235-488 limits assumed): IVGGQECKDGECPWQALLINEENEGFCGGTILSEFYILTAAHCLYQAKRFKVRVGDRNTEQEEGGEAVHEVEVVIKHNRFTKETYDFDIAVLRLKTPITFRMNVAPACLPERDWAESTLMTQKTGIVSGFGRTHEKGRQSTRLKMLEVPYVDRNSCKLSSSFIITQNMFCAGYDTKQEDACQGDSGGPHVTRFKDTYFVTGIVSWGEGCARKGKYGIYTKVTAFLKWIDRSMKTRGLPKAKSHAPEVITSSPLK
# factor Xa, sequence (P00742 41-179 partner limits assumed): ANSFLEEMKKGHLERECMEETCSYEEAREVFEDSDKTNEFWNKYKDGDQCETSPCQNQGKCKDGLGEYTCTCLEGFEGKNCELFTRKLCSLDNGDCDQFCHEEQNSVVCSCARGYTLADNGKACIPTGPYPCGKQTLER
row,Compound,IC50 [nM]
1,"CC(C)CN(Cc1cccc(C(=N)N)c1)C(=O)C(=O)Nc1ccc(-c2ccccc2S(N)(=O)=O)cc1 [Example 1, N-(3-amidinobenzyl)-N-isobutyl-N′-(2′-sulfamoylbiphenyl-4-yl)oxalamide]",10
2,"CC(C)CN(Cc1cccc(C(=N)N)c1)C(=O)C(=O)Nc1ccc(-c2ccccc2S(=O)(=O)NC(C)(C)C)cc1 [Example 1g, N-(2′-tert-butylsulfamoylbiphenyl-4-yl)-N′-(3-amidinobenzyl)-N′-isobutyloxalamide]",300
3,"CC(C)CN(Cc1cccc(C(=N)N)c1)C(=O)C(=O)Nc1ccc(-c2ccccc2S(C)(=O)=O)cc1 [Example 3, N-(3-amidinobenzyl)-N-isobutyl-N′-(2′-methanesulfonylbiphenyl-4-yl)oxalamide]",9.6
4,"COC(=O)NC(=N)c1cccc(CN(CC(C)C)C(=O)C(=O)Nc2ccc(-c3ccccc3S(C)(=O)=O)cc2)c1 [Example 4, Methyl [imino-(3-{[isobutyl-(2′-methanesulfonylbiphenyl-4-ylaminooxalyl)amino]methyl}phenyl)methyl]carbamate]",3500
5,"CC(C)CN(Cc1cccc(C(=N)N)c1)C(=O)C(=O)Nc1ccc(-c2ccc(C(=N)N)cc2)cc1 [Example 5, N-(3-amidinobenzyl)-N′-(4′-amidinobiphenyl-4-yl)-N-isobutyloxalamide]",1000
6,"CC(C)CN(Cc1cccc(C(=N)N)c1)C(=O)C(=O)Nc1ccc(-c2ccc(CN)cc2)cc1 [Example 6, N-(4′-Aminomethylbiphenyl-4-yl)-N′-(3-amidinobenzyl)-N′-isobutyloxalamide]",1500
7,"CC(C)CN(Cc1cccc(C(=O)O)c1)C(=O)C(=O)Nc1ccc(-c2ccccc2S(N)(=O)=O)cc1 [Example 7, 3-{[Isobutyl-(2′-sulfamoylbiphenyl-4-ylaminooxalyl)amino]methyl}benzoic acid]",6000
